Assays:
[1] = test system: Tyrosine-protein kinase ABL1 (Homo sapiens), P00519 [Y253F]; settings: Compound concentration 1000.0 nM
[2] = biological target: Activin receptor type-1 (Homo sapiens) (UniProt Q04771); settings: Compound concentration 1000.0 nM
[3] = biological target: Aurora kinase B (Homo sapiens) (UniProt Q96GD4); settings: Compound concentration 1000.0 nM
[4] = test system: Serine/threonine-protein kinase B-raf (Homo sapiens), P15056 [V600E]; settings: Compound concentration 1000.0 nM
[5] = biological target: Serine/threonine-protein kinase BRSK1 (Homo sapiens) (UniProt Q8TDC3); settings: Compound concentration 1000.0 nM
[6] = biological target: Cyclin-dependent kinase 11B (Homo sapiens) (UniProt P21127); settings: Compound concentration 1000.0 nM
[7] = biological target: Cyclin-dependent kinase-like 1 (Homo sapiens) (UniProt Q00532); settings: Compound concentration 1000.0 nM
Sequence of Cyclin-dependent kinase-like 1 (Homo sapiens) (Q00532 whole entry): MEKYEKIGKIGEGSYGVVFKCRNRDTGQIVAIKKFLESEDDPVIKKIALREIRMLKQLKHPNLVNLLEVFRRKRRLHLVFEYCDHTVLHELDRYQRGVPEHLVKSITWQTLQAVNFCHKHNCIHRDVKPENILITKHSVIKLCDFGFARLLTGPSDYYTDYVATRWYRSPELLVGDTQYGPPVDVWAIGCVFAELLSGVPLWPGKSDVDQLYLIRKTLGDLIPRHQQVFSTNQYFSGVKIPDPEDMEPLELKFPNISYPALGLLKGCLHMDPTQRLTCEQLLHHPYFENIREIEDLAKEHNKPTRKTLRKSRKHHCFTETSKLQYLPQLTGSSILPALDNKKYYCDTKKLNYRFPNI

[8] = biological target: Citron Rho-interacting kinase (Homo sapiens) (UniProt O14578); settings: Compound concentration 1000.0 nM
[9] = biological target: Dual specificity protein kinase CLK4 (Homo sapiens) (UniProt Q9HAZ1); settings: Compound concentration 1000.0 nM
[10] = biological target: Megakaryocyte-associated tyrosine-protein kinase (Homo sapiens) (UniProt P42679); settings: Compound concentration 1000.0 nM
Sequence of Megakaryocyte-associated tyrosine-protein kinase (Homo sapiens) (P42679 whole entry): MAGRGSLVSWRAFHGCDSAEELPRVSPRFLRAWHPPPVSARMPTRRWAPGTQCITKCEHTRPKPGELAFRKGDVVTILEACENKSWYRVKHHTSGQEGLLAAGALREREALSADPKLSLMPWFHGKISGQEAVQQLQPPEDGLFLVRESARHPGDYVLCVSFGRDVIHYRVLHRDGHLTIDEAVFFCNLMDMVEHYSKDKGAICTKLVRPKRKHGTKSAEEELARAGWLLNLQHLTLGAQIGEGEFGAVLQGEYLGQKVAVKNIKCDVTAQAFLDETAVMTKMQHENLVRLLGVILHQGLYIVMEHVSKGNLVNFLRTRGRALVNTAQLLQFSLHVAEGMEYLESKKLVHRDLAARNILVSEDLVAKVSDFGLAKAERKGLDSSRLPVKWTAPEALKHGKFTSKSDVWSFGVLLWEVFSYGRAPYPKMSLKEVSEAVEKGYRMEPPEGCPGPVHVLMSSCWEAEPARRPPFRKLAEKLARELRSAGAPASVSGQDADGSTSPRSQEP

[11] = biological target: Death-associated protein kinase 1 (Homo sapiens) (UniProt P53355); settings: Compound concentration 1000.0 nM
[12] = biological target: Dual specificity tyrosine-phosphorylation-regulated kinase 1A (Homo sapiens) (UniProt Q13627); settings: Compound concentration 1000.0 nM
[13] = biological target: Dual specificity tyrosine-phosphorylation-regulated kinase 1B (Homo sapiens) (UniProt Q9Y463); settings: Compound concentration 1000.0 nM
Sequence of Dual specificity tyrosine-phosphorylation-regulated kinase 1B (Homo sapiens) (Q9Y463 whole entry, looked up): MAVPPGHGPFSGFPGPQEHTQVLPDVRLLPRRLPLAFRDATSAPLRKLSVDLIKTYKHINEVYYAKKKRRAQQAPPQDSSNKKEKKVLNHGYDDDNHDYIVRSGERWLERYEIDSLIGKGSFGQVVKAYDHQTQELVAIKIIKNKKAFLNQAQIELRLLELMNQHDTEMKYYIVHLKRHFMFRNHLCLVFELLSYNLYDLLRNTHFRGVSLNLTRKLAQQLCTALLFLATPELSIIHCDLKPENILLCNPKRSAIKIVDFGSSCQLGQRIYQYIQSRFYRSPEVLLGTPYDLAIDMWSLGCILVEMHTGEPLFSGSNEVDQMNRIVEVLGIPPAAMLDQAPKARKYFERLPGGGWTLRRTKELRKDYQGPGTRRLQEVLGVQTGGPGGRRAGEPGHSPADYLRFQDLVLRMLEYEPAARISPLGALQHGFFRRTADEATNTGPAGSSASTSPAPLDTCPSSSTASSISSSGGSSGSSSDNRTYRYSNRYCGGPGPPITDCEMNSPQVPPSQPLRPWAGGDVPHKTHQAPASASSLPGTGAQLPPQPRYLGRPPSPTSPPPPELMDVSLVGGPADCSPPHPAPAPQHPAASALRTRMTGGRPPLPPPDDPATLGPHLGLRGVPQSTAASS

[14] = test system: Epidermal growth factor receptor (Homo sapiens), P00533 [L858R]; settings: Compound concentration 1000.0 nM
[15] = biological target: Ephrin type-A receptor 8 (Homo sapiens) (UniProt P29322); settings: Compound concentration 1000.0 nM
[16] = biological target: Mitogen-activated protein kinase 4 (Homo sapiens) (UniProt P31152); settings: Compound concentration 1000.0 nM
[17] = test system: Receptor-type tyrosine-protein kinase FLT3 (Homo sapiens), P36888 [D835H]; settings: Compound concentration 1000.0 nM
[18] = test system: Receptor-type tyrosine-protein kinase FLT3 (Homo sapiens), P36888 [R834Q]; settings: Compound concentration 1000.0 nM
[19] = biological target: Homeodomain-interacting protein kinase 2 (Homo sapiens) (UniProt Q9H2X6); settings: Compound concentration 1000.0 nM
[20] = biological target: Homeodomain-interacting protein kinase 3 (Homo sapiens) (UniProt Q9H422); settings: Compound concentration 1000.0 nM
[21] = biological target: Mitogen-activated protein kinase kinase kinase kinase 1 (Homo sapiens) (UniProt Q92918); settings: Compound concentration 1000.0 nM
[22] = biological target: Serine/threonine-protein kinase ICK (Homo sapiens) (UniProt Q9UPZ9); settings: Compound concentration 1000.0 nM
[23] = biological target: Insulin receptor (Homo sapiens) (UniProt P06213); settings: Compound concentration 1000.0 nM
[24] = biological target: Interleukin-1 receptor-associated kinase 3 (Homo sapiens) (UniProt Q9Y616); settings: Compound concentration 1000.0 nM
[25] = biological target: Interleukin-1 receptor-associated kinase 4 (Homo sapiens) (UniProt Q9NWZ3); settings: Compound concentration 1000.0 nM
[26] = biological target: Mitogen-activated protein kinase kinase kinase 1 (Homo sapiens) (UniProt Q13233); settings: Compound concentration 1000.0 nM
[27] = biological target: Hepatocyte growth factor receptor (Homo sapiens) (UniProt P08581); settings: Compound concentration 1000.0 nM
[28] = biological target: Myosin light chain kinase, smooth muscle (Homo sapiens) (UniProt Q15746); settings: Compound concentration 1000.0 nM
[29] = biological target: Myosin-IIIa (Homo sapiens) (UniProt Q8NEV4); settings: Compound concentration 1000.0 nM
[30] = biological target: Serine/threonine-protein kinase Nek9 (Homo sapiens) (UniProt Q8TD19); settings: Compound concentration 1000.0 nM
[31] = biological target: 3-phosphoinositide-dependent protein kinase 1 (Homo sapiens) (UniProt O15530); settings: Compound concentration 1000.0 nM
[32] = biological target: Phosphatidylinositol 4,5-bisphosphate 3-kinase catalytic subunit alpha isoform (Homo sapiens) (UniProt P42336); settings: Compound concentration 1000.0 nM
[33] = test system: Phosphatidylinositol 4,5-bisphosphate 3-kinase catalytic subunit alpha isoform (Homo sapiens), P42336 [C420R]; settings: Compound concentration 1000.0 nM
[34] = biological target: 1-phosphatidylinositol 3-phosphate 5-kinase (Homo sapiens) (UniProt Q9Y2I7); settings: Compound concentration 1000.0 nM
[35] = biological target: Protein-tyrosine kinase 2-beta (Homo sapiens) (UniProt Q14289); settings: Compound concentration 1000.0 nM
[36] = biological target: RAF proto-oncogene serine/threonine-protein kinase (Homo sapiens) (UniProt P04049); settings: Compound concentration 1000.0 nM
[37] = biological target: Receptor-interacting serine/threonine-protein kinase 1 (Homo sapiens) (UniProt Q13546); settings: Compound concentration 1000.0 nM
[38] = biological target: Ribosomal protein S6 kinase alpha-1 (Homo sapiens) (UniProt Q15418); settings: Compound concentration 1000.0 nM
Sequence of Ribosomal protein S6 kinase alpha-1 (Homo sapiens) (Q15418 whole entry): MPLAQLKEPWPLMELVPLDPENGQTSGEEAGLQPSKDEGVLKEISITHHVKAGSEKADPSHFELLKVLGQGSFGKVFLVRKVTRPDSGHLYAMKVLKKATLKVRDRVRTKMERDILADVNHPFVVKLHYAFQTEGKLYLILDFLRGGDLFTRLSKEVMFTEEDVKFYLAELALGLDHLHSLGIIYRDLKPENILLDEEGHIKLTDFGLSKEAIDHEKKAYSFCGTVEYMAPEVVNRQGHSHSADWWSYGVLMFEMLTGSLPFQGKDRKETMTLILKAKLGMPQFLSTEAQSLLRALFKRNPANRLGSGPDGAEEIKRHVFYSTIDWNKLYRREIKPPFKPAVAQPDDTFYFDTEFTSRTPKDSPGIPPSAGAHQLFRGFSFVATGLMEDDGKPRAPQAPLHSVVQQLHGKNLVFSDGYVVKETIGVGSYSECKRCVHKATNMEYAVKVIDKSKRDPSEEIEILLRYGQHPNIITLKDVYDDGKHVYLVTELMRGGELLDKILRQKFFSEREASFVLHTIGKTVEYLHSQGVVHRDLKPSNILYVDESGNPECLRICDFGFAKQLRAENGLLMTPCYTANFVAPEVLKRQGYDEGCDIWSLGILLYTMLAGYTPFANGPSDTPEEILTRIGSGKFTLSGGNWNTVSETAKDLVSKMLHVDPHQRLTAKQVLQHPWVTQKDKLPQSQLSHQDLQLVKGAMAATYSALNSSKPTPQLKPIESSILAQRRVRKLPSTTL

[39] = biological target: Ribosomal protein S6 kinase alpha-3 (Homo sapiens) (UniProt P51812); settings: Compound concentration 1000.0 nM
Sequence of Ribosomal protein S6 kinase alpha-3 (Homo sapiens) (P51812 whole entry): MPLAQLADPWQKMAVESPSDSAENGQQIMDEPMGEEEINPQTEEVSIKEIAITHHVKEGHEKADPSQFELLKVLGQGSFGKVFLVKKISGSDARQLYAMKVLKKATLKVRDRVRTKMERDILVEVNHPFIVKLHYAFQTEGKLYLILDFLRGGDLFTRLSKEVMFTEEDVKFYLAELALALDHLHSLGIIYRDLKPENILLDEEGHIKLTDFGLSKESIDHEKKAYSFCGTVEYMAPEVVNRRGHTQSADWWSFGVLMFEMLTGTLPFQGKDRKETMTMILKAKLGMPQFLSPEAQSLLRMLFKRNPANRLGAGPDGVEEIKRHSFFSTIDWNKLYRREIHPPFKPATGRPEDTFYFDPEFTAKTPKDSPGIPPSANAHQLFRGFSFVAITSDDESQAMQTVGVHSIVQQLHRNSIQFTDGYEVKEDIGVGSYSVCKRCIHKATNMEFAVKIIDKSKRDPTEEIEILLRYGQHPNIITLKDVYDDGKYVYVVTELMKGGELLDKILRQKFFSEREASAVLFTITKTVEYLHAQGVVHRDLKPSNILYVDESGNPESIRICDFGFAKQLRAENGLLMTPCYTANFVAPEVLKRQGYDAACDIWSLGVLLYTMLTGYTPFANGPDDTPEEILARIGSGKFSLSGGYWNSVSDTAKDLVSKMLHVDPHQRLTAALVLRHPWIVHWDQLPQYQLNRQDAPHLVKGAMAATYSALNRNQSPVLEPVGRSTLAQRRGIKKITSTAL

[40] = biological target: Tyrosine-protein kinase SYK (Homo sapiens) (UniProt P43405); settings: Compound concentration 1000.0 nM
[41] = biological target: Serine/threonine-protein kinase TAO3 (Homo sapiens) (UniProt Q9H2K8); settings: Compound concentration 1000.0 nM
Sequence of Serine/threonine-protein kinase TAO3 (Homo sapiens) (Q9H2K8 whole entry): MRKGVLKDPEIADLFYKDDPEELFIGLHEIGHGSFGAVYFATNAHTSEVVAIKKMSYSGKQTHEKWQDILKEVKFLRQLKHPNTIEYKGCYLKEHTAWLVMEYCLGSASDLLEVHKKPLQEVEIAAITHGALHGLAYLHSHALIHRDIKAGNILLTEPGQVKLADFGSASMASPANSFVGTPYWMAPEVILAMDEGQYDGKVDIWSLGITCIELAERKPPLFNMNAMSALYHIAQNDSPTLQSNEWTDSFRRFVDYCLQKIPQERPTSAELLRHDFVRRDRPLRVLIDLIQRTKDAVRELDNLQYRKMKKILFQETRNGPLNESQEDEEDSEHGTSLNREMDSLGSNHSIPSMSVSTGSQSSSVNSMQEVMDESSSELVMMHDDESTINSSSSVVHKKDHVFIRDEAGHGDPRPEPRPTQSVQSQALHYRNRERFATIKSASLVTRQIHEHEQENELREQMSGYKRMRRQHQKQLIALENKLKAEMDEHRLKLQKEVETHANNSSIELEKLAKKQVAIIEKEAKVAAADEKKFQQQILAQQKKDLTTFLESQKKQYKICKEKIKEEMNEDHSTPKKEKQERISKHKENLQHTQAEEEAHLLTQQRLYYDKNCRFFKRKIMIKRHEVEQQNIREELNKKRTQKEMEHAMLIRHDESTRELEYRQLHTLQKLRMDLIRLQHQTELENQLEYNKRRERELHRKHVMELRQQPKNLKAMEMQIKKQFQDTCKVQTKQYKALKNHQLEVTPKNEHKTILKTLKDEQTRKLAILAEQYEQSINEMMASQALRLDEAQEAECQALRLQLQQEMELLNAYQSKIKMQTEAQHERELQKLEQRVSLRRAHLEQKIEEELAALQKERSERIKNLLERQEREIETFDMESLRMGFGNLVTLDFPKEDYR

[42] = biological target: Serine/threonine-protein kinase ULK2 (Homo sapiens) (UniProt Q8IYT8); settings: Compound concentration 1000.0 nM
[43] = biological target: Serine/threonine-protein kinase 25 (Homo sapiens) (UniProt O00506); settings: Compound concentration 1000.0 nM
[44] = biological target: 5-hydroxytryptamine receptor 2B (Homo sapiens) (UniProt P41595); settings: Compound concentration 10.0 uM
[45] = biological target: Histamine H4 receptor (Homo sapiens) (UniProt Q9H3N8); settings: Compound concentration 10.0 uM
Rattus norvegicus = organism: Rattus norvegicus; settings: Compound concentration 10.0 uM

Sequence of Aurora kinase B (Homo sapiens) (Q96GD4 whole entry): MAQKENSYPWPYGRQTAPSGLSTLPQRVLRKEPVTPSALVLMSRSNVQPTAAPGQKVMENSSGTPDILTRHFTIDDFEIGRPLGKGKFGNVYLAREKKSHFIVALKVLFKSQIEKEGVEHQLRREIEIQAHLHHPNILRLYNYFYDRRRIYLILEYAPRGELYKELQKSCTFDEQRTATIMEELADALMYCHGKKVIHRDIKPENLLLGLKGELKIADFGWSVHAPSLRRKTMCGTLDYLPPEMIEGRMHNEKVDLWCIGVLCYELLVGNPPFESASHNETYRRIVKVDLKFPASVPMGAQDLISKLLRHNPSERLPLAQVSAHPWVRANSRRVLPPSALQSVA
Sequence of Activin receptor type-1 (Homo sapiens) (Q04771 whole entry): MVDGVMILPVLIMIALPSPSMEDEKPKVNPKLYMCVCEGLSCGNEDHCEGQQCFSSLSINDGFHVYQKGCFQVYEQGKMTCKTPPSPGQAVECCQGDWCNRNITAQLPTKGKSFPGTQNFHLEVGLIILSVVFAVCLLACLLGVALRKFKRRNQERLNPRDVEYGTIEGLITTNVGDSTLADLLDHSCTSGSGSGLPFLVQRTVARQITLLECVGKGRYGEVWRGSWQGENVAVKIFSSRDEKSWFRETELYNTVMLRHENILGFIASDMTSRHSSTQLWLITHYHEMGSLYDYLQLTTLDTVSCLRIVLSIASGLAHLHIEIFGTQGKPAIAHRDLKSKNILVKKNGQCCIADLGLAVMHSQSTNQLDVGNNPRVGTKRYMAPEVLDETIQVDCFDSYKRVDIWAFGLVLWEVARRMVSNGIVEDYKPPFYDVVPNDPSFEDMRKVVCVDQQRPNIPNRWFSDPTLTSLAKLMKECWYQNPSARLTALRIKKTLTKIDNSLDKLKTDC

## CCC(=N\O)/C(C)=C/c1ccc(F)cc1 [A-079]
[1]
  residual activity: 80%
[2]
  residual activity: 80%
[3]
  residual activity: 68%
[4]
  residual activity: 77%
[5]
  residual activity: 100%
[6]
  residual activity: 89%
[7]
  residual activity: 81%
[8]
  residual activity: 70%
[9]
  residual activity: 100%
[10]
  residual activity: 72%
[11]
  residual activity: 100%
[12]
  residual activity: 91%
[13]
  residual activity: 57%
[14]
  residual activity: 65%
[15]
  residual activity: 100%
[16]
  residual activity: 75%
[17]
  residual activity: 100%
[18]
  residual activity: 80%
[19]
  residual activity: 100%
[20]
  residual activity: 78%
[21]
  residual activity: 92%
[22]
  residual activity: 100%
[23]
  residual activity: 100%
[24]
  residual activity: 100%
[25]
  residual activity: 100%
[26]
  residual activity: 63%
[27]
  residual activity: 88%
[28]
  residual activity: 100%
[29]
  residual activity: 100%
[30]
  residual activity: 79%
[31]
  residual activity: 87%
[32]
  residual activity: 100%
[33]
  residual activity: 79%
[34]
  residual activity: 92%
[35]
  residual activity: 99%
[36]
  residual activity: 91%
[37]
  residual activity: 82%
[38]
  residual activity: 100%
[39]
  residual activity: 81%
[40]
  residual activity: 100%
[41]
  residual activity: 86%
[42]
  residual activity: 46%
[43]
  residual activity: 86%
[44]
  inhibition: 24.7%
[45]
  inhibition: 9.43%
Rattus norvegicus
  inhibition: 11.9%

## CCC(=N\O)/C(C)=C/c1ccc(F)c(C)c1 [A-226]
[1]
  residual activity: 100%
[2]
  residual activity: 100%
[3]
  residual activity: 100%
[4]
  residual activity: 100%
[5]
  residual activity: 99%
[6]
  residual activity: 95%
[7]
  residual activity: 91%
[8]
  residual activity: 70%
[9]
  residual activity: 97%
[10]
  residual activity: 100%
[11]
  residual activity: 97%
[12]
  residual activity: 100%
[13]
  residual activity: 100%
[14]
  residual activity: 100%
[15]
  residual activity: 99%
[16]
  residual activity: 96%
[17]
  residual activity: 89%
[18]
  residual activity: 100%
[19]
  residual activity: 100%
[20]
  residual activity: 100%
[21]
  residual activity: 100%
[22]
  residual activity: 97%
[23]
  residual activity: 100%
[24]
  residual activity: 94%
[25]
  residual activity: 95%
[26]
  residual activity: 100%
[27]
  residual activity: 100%
[28]
  residual activity: 93%
[29]
  residual activity: 94%
[30]
  residual activity: 100%
[31]
  residual activity: 100%
[32]
  residual activity: 100%
[33]
  residual activity: 100%
[34]
  residual activity: 100%
[35]
  residual activity: 98%
[36]
  residual activity: 99%
[37]
  residual activity: 100%
[38]
  residual activity: 100%
[39]
  residual activity: 100%
[40]
  residual activity: 76%
[41]
  residual activity: 46%
[42]
  residual activity: 100%
[43]
  residual activity: 100%
[44]
  inhibition: 43.8%
[45]
  inhibition: 10.8%
Rattus norvegicus
  inhibition: 50.6%

— ChEMBL document CHEMBL4507256 (2021)
